Measured values taken from PMC4607728, “Effect of monovalent cations on the kinetics of hypoxic conformational change of mitochondrial complex I” (Biochimica et Biophysica Acta, 2015).

Assays:
[1] = target: T1, bovine mitochondrial complex I (proton-translocating NADH:ubiquinone oxidoreductase) (Bos taurus, UniProt P03887+P17694+P42026); test: NADH:Q1 oxidoreductase inhibition, SMP, NADH absorbance at […] nm; type: biochemical; conditions: neutral pH (7.0; Figure 7 caption gives NADH-oxidase reaction, A-form); SET buffer, 25 °C, 165 μM NADH; 5-7 min preincubation
T1 construct: gene NDUFS2; with NADH-ubiquinone oxidoreductase chain 3; NADH dehydrogenase [ubiquinone]; 1 alpha subcomplex subunit 9, mitochondrial; NADH-ubiquinone oxidoreductase chain 2; NADH-ubiquinone oxidoreductase chain 4; NADH-ubiquinone oxidoreductase chain 4L; NADH-ubiquinone oxidoreductase chain 5; NADH-ubiquinone oxidoreductase chain 6; NADH-ubiquinone oxidoreductase 75 kDa subunit, mitochondrial; NADH dehydrogenase [ubiquinone] flavoprotein 1, mitochondrial; NADH dehydrogenase [ubiquinone] flavoprotein 2, mitochondrial; NADH dehydrogenase [ubiquinone] iron-sulfur protein 3, mitochondrial; NADH dehydrogenase [ubiquinone] iron-sulfur protein 8, mitochondrial
T1 sequence (P17694 34-463): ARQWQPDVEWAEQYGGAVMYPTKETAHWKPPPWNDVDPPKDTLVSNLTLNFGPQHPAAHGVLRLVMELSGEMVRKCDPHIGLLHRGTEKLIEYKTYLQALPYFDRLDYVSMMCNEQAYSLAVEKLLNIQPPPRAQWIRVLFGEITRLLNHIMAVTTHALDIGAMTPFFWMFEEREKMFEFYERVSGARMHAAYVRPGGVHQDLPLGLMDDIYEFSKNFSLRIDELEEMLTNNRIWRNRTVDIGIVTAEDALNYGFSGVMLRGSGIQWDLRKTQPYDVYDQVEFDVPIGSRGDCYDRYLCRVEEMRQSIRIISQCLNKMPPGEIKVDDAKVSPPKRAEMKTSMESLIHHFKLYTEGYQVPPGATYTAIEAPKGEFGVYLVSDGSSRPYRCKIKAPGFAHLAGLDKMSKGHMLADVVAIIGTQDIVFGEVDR
T1 sequence (P42026 38-216): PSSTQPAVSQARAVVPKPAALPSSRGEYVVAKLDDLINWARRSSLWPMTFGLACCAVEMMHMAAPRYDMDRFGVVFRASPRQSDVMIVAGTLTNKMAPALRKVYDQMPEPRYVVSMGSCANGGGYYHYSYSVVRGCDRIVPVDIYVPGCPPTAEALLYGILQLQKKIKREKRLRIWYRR
T1 sequence (P03887 whole entry): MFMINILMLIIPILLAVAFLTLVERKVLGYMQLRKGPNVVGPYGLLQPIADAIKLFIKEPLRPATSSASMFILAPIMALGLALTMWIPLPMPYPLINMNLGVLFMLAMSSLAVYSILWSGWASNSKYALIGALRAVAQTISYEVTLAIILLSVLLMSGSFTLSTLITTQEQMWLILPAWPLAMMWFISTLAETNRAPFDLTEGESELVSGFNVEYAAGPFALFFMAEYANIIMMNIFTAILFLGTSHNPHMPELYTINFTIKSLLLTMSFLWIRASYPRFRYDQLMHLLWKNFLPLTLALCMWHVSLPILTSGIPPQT
T1 sequence (P03898 whole entry partner): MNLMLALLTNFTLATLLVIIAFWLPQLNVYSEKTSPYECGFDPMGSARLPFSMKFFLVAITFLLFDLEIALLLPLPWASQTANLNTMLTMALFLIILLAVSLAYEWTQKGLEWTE
T1 sequence (P34943 36-380 partner): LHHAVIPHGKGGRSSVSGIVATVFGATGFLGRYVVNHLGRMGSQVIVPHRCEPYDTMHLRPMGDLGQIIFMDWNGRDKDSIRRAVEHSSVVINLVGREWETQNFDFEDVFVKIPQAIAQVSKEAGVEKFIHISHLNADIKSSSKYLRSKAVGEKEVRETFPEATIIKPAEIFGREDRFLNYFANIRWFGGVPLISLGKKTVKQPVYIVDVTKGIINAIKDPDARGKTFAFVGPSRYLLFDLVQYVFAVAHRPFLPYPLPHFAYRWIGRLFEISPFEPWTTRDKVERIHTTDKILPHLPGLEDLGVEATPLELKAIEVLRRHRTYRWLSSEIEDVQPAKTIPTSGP

[2] = target: T1, bovine mitochondrial complex I (proton-translocating NADH:ubiquinone oxidoreductase); test: rate constant of D-to-A activation from lag phase of NADH oxidation, SMP; type: biochemical; conditions: D-form of complex I; pH 7.0, SET buffer, no alkali cations; control without EIPA 1.00 ± 0.04 min^-1; 165 μM NADH

SMILES: CCN(c1nc(N)c(C(=O)NC(=N)N)nc1Cl)C(C)C [EIPA]
- IC50 [1]: ~40 µM
- kD → A at 20 μM EIPA [2]: 0.22 ± 0.04 min^− 1
